A short description of data set [1]: in vivo. To be noted: Wistar, rat, po, 3 mg/kg.
Data set [2] in a line: in vivo. To be noted: Wistar, rat, iv, 3 mg/kg.
Data set [3] can be described thus: in vivo. To be noted: Wistar, rat, plasma, iv, 3 mg/kg.
Data set [4] can be described thus: in vivo. To be noted: Wistar, rat, brain, po, 3 mg/kg.
For data set [5] the following is noted: human, microsomes, 1 µM.
In data set [6] the target is Voltage-gated inwardly rectifying potassium channel KCNH2 (Homo sapiens, UniProt Q12809).
Chain of Voltage-gated inwardly rectifying potassium channel KCNH2 (Q12809 whole entry): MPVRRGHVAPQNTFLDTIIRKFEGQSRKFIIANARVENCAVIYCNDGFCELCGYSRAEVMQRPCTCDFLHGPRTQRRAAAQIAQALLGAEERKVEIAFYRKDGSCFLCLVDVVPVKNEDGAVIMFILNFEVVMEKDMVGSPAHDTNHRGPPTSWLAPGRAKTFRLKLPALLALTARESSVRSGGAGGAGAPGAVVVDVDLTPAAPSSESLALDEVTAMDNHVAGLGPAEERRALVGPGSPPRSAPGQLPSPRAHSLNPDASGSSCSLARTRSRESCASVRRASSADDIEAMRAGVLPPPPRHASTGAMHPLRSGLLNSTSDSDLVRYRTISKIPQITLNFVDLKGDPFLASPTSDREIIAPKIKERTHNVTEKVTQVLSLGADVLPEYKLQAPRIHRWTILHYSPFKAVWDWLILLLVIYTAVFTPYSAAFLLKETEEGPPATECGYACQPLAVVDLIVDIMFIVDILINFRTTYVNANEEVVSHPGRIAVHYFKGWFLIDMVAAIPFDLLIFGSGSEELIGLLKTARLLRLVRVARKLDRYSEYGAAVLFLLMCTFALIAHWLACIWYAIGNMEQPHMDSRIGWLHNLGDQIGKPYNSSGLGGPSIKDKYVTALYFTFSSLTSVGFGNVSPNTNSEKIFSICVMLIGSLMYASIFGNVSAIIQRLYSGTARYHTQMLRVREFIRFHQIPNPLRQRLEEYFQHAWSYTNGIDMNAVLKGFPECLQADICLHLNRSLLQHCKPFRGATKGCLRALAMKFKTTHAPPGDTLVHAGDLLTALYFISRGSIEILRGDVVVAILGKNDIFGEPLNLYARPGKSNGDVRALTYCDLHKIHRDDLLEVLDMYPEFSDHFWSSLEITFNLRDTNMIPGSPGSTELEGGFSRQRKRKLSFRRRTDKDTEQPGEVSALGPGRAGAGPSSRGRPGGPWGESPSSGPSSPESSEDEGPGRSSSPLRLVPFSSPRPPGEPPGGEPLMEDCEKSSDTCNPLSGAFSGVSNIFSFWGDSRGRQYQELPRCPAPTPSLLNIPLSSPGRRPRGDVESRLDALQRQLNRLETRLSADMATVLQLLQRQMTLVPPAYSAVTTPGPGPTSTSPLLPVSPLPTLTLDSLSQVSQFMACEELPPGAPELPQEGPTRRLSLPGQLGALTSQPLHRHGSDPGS
Description: Inhibition of hERG expressed in CHO cells at -80 mV holding potential incubated for 7 to 10 mins by automated patch clamp method
The nature of data set [7]: Half life in Wistar rat plasma at 3 mg/kg, iv by HPLC-MS/MS analysis.
Data set [8] is described as follows: animal or person. To be noted: Mus musculus, NMRI, po, read-out: INH.
Data set [9] is described as follows: in vivo. To be noted: Wistar, rat, po, 3 mg/kg. This is another data set of the same source.
Data set [10] in a line: Efflux ratio of apparent permeability across basolateral to apical side over apical to basolateral side in vinblastine treated human Caco-2 cells at 1 to 10 uM incubated for 15 to 60 hrs by HPLC analysis. (In general: Passage across Caco-2 layers is used to estimate intestinal permeability.)
A short description of data set [11]: in vivo. To be noted: Wistar, rat, plasma, iv, 3 mg/kg. This is another data set of the same source.
A short description of data set [12]: Half life in Wistar rat brain at 3 mg/kg, po by HPLC-MS/MS analysis.
Data set [13] is described as follows: animal or person. To be noted: Mus musculus, NMRI, po, read-out: INH. The source holds these as a separate data set.
Data set [14] in a line: in vitro. To be noted: NMRI, mouse, microsomes.
A short description of data set [15]: in vitro. To be noted: Wistar, rat, microsomes.
Data set [16] is described as follows: Half life in Wistar rat plasma at 3 mg/kg, po by HPLC-MS/MS analysis.
Data set [17] can be described thus: in vivo. To be noted: Wistar, rat, brain, po, 3 mg/kg. This is another data set of the same source.
A short description of data set [18]: in vivo. To be noted: Wistar, rat, brain, po, 3 mg/kg. The source holds these as a separate data set.
Data set [19] in a line: Apparent permeability of compound across apical to basal side in vinblastine treated human Caco-2 cells at 1 to 10 uM incubated for 15 to 60 mins by HPLC analysis.
Data set [20] in a line: in vivo. To be noted: Wistar, rat, plasma, po, 3 mg/kg.
Data set [21] deals with T1, Vasopressin V1a receptor (Homo sapiens, UniProt P37288).
T1 sequence (P37288 whole entry): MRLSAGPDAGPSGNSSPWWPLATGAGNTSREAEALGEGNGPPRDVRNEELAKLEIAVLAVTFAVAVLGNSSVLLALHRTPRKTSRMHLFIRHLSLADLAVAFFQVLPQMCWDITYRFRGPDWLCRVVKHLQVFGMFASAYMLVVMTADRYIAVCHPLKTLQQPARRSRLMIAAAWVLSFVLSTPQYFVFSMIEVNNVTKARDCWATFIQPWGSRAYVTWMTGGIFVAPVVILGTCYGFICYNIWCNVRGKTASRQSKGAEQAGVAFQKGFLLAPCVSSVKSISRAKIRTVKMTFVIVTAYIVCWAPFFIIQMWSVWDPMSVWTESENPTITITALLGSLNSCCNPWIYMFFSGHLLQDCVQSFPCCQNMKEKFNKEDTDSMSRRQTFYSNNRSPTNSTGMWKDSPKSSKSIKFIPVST
Description: Antagonist activity at human V1A receptor expressed in human 1321N1 cells assessed as Ca2+ mobilization incubated for 15 mins by FLIPR calcium 5 assay
The nature of data set [22]: in vitro. To be noted: CD-1, mouse, liver microsomes.
Data set [23] is described as follows: animal or person. To be noted: Rattus norvegicus, po, read-out: INH.
For data set [24], the target named is T1, Vasopressin V1a receptor. This is another data set of the same source.
Description: Displacement of [3H]vasopressin from human V1A receptor assessed as inhibition constant by Cheng-Prusoff equation analysis
Data set [25] concerns the target T2, Cytochrome P450 1A2 (Homo sapiens, UniProt P05177).
T2 sequence (P05177 whole entry): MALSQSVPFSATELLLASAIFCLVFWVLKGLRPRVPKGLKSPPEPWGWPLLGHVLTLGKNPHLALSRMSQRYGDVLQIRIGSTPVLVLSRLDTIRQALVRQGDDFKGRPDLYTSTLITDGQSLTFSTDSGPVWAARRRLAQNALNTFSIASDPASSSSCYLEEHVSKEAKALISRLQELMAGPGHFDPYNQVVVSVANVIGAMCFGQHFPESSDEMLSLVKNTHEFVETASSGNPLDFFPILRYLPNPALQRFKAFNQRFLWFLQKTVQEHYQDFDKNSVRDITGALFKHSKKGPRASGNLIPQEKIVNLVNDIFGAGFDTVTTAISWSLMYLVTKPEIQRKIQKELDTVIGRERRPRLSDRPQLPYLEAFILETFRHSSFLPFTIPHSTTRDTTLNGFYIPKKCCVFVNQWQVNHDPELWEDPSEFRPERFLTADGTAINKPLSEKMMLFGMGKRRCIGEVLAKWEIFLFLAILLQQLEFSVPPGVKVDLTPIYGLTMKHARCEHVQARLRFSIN
The experiment in a line: Inhibition of CYP1A2 (unknown origin). The format is ADME.

Data set [26] has as its target Cytochrome P450 2C9 (Homo sapiens, UniProt P11712). The experiment in a line: Inhibition of CYP2C9 (unknown origin). The format is ADME.
In data set [27] the target is Cytochrome P450 2D6 (Homo sapiens, UniProt P10635). The experiment in a line: Inhibition of CYP2D6 (unknown origin). The format is ADME.
Chain of Cytochrome P450 2D6 (P10635 whole entry): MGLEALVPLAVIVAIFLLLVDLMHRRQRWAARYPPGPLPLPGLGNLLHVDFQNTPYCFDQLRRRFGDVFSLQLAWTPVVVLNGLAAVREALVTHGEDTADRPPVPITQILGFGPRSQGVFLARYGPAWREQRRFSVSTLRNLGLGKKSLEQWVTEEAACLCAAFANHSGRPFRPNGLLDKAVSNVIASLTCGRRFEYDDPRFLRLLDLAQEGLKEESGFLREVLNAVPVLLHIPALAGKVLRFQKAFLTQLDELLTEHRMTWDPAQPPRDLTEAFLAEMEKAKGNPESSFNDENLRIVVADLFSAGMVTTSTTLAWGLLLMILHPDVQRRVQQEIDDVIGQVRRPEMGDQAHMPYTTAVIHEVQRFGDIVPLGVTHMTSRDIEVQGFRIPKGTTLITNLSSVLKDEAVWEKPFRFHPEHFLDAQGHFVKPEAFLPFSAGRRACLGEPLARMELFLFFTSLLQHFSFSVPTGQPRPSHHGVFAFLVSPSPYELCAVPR
The target in data set [28] is T3, Cytochrome P450 2B6 (Homo sapiens, UniProt P20813).
T3 sequence (P20813 whole entry): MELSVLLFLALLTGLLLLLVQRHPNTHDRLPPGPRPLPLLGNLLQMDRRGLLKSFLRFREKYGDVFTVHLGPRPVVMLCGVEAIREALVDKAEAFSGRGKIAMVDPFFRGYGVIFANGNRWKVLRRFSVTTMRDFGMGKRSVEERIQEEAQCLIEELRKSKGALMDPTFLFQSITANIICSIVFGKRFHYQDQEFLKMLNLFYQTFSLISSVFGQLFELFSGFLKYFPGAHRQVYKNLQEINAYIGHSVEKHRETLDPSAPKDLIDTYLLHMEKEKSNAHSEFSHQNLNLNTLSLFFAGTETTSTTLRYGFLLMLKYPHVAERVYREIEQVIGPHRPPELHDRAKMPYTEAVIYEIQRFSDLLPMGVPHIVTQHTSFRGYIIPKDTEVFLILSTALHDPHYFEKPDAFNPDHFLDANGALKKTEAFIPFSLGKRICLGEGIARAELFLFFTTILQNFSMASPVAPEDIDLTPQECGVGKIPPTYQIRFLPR
The data set is described as follows: Inhibition of CYP2B6 (unknown origin). The format is ADME.

Data set [29] addresses Cytochrome P450 3A4 (Homo sapiens, UniProt P08684). The experiment in a line: Inhibition of CYP3A4 (unknown origin). It counts as ADME.
In data set [30] the target is T4, Cytochrome P450 2C8 (Homo sapiens, UniProt P10632).
T4 sequence (P10632 whole entry): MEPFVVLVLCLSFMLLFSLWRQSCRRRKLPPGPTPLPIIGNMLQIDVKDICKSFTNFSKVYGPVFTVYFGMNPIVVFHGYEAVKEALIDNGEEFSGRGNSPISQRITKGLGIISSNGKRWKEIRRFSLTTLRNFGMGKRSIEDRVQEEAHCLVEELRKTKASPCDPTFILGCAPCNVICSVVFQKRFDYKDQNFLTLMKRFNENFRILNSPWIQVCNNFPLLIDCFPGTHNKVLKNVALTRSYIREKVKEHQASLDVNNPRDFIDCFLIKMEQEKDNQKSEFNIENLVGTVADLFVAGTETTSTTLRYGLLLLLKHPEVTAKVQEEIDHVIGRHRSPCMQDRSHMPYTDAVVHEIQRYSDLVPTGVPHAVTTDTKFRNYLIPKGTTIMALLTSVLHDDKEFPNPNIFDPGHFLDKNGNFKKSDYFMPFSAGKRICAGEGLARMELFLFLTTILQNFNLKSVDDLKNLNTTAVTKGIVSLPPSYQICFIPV
The experiment in a line: Inhibition of CYP2C8 (unknown origin). The format is ADME.

The AUC(0-t) is exposure summed from dosing to a finite time, without extrapolation to infinity. A lower AUC(0-t) goes with low exposure. Broadly, the Tmax is the time at which the peak concentration occurs. The IC50 is the concentration needed to halve the response being measured. Broadly, the half-life is how long it takes for the measured level to halve. A word on the efflux ratio: it is the permeability from basolateral to apical divided by that in the opposite direction, in the common usage. The Cmax is the highest concentration seen after dosing. As usually defined, the microsomal CLint is a measure of how fast metabolising enzymes remove a compound, apart from limits set by blood flow. A lower microsomal CLint goes with greater metabolic stability. A word on the Papp A→B: it is how fast a substance crosses the layer from the apical side. As a reminder, the Ki is the equilibrium dissociation constant of an inhibitor or competing ligand from its target. A high value points to a looser hold on the target.

Chain of Cytochrome P450 3A4 (P08684 whole entry): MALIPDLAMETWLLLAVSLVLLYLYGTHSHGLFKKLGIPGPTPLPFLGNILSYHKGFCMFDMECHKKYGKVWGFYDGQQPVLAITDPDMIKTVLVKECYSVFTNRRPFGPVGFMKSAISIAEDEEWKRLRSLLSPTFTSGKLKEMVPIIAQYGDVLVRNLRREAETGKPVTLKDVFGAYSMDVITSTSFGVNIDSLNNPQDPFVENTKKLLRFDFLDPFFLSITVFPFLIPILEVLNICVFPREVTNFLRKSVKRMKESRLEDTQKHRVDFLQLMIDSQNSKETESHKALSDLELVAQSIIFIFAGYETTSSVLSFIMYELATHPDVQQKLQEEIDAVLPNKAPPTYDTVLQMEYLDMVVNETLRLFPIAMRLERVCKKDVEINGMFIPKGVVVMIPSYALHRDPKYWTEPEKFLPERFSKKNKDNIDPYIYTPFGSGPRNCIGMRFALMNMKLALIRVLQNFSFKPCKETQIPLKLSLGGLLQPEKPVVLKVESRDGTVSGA
Chain of Cytochrome P450 2C9 (P11712 whole entry): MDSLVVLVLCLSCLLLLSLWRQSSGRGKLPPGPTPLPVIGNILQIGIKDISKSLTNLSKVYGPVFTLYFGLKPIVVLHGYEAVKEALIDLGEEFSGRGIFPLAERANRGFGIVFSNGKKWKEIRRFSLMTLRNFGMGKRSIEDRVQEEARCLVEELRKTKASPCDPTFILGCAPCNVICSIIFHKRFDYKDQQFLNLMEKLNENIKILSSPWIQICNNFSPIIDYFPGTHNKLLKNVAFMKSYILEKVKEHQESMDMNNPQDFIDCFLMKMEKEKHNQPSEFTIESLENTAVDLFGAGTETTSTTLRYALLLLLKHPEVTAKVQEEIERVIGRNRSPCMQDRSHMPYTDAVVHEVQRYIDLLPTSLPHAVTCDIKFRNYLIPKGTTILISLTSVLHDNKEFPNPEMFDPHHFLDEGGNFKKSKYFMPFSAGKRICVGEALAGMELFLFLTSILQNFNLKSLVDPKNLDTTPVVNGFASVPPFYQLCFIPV

For `OC1Cc2cc(Cl)ccc2-n2c(nnc2[C@H]2CC[C@H](Oc3ccccn3)CC2)C1` (mixture of isomers), the AUC(0-t) came to 0.481 µM·h in data set [1], 0.876 µM·h in data set [2] and 0.897 µM·h in data set [9]. Also, the Tmax was 0.3 h in data set [3] and 0.5 h in data set [17]. The same molecule showed a Kp in data set [4] of 0.54. The molecule further came in with a CLH in [5] of 0.58 mL/day/kg. The molecule further showed an IC50 in [6] of more than 30 µM. Further, the half-life in data set [7] is 1 h; in data set [12], 1.43 h; in data set [16] it was 1.5 h. Besides, the inhibition in vivo at 10 mg/kg in data set [8] amounted to 91%. The efflux ratio at 10 µM in data set [10] amounted to 5.9. For the same molecule, the Cmax worked out at 469 nM in data set [11], 190 nM in data set [18] and 403 nM in [20]. Moreover, the inhibition in vivo at 3 mg/kg in data set [13] is 87%. The microsomal CLint at 1 µM in [14] turned out to be 6 µL/min/mg; in [15], 17 µL/min/mg. Besides, the Papp A→B at 10 µM in [19] came out at 20 ×10⁻⁶ cm/s.
Turning to `CO[C@@H]1Cc2cc(Cl)ccc2-n2c(nnc2[C@H]2CC[C@H](Oc3ccccn3)CC2)C1`, the half-maximal inhibitory concentration (IC50) in [21] was 0.0006 µM; in [6], 13.8 µM. The inhibition in vivo at 10 mg/kg is 67% in [8] and more than 60% in [23]. Also, in data set [10], the efflux ratio at 10 µM is 0.9. Further, the results for the microsomal CLint at 1 µM in data set [22] and in data set [15] were 25 µL/min/mg and 41 µL/min/mg, respectively. Besides, in data set [13], the inhibition in vivo at 3 mg/kg is 73%. This molecule also displayed a Ki in [24] of 0.0002 µM. In addition, the Papp A→B at 10 µM in [19] turned out to be 38 ×10⁻⁶ cm/s.
Consider `Clc1ccc2c(c1)CC1(Cc3nnc([C@H]4CC[C@H](Oc5ccccn5)CC4)n3-2)OCCO1`, for which the IC50 in data set [25], in data set [26], in data set [27], in [28], in data set [29] and in data set [30] was more than 10 µM each time.

The record behind these values is ChEMBL document CHEMBL5532679, “Discovery and Characterization of RGH-122, a Potent, Selective, and Orally Bioavailable V1a Receptor Antagonist” (J Med Chem, 2024).
